Laboratory results: the METLIN SMRT retention time set (Domingo-Almenara et al. 2019)

Experiment: gradient 5% acetonitrile 3 min, to 50% in 2 min, to 85% in 15 min, held 3 min, 100 µL/min
Conditions: column: Zorbax Extend-C18 2.1 x 50 mm; eluents: water / acetonitrile, 0.1% formic acid
Method in brief: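 The system's dead and dwell volumes were 40 μL and 900 μL, with a Zorbax Extend-C18 column (2.1 × 50 mm, 1.8 μm) run at 100 μL/min in water and acetonitrile containing 0.1% formic acid each. Pure standards were analyzed in mixtures of ~100 molecules by HPLC–quadrupole time-of-flight mass spectrometry in positive and negative ionization mode. Retention time was assigned from computationally picked, manually inspected adduct peaks.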

RP-LC retention time [s] | Structure (SMILES)
1310 | Cc1ccc(Sc2nccnc2N2CCC(C(=O)N3CCN(c4cccc(C)c4)CC3)CC2)cc1
824 | Cc1ccc(CN2CCc3nc(N4CCN(c5ccccc5F)CC4)ncc3C2)cc1
911 | COc1cccc(-c2noc(Cn3c(=O)n(Cc4ccccc4)c(=O)c4sccc43)n2)c1
810 | O=C(c1cccs1)N1CCC2(CC1)NC(=O)N(Cc1cccc(Cl)c1)C2=O
850 | CSc1ccc(CNC(=O)c2ccc3c(c2)NC(=O)C2CCCCN32)cc1 (stereo not given)
614 | Cc1c(C)n(C(=O)CN2CCC(C(N)=O)CC2)c2ccccc12
714 | Cn1cc(CN2CCC(C(=O)NCc3ccccc3)CC2)c2cc(Cl)ccc21
856 | O=C(CCC1CCCN(C(=O)Nc2ccc(F)cc2)C1)NCc1ccc(Cl)cc1 (stereo not given)
810 | Cc1cccc(CN2CCc3nc(N4CCN(c5ccccc5F)CC4)ncc3C2)c1
752 | O=C(Cc1ccc(Cl)cc1)Nc1cnc(N2CCCC2)nc1
911 | O=C(Cn1c(=O)c2cccn2c2ccc(F)cc21)N1CCc2ccccc2C1
959 | Cc1cc(C)c(CNC(=O)C2CCN(c3cnc(N4CCSCC4)nc3)CC2)c(C)c1
684 | Cc1c(CNCc2ccco2)c(C(=O)O)c(C)n1Cc1cccc(F)c1
589 | CCN1CCN(CCNC(=O)Cn2c(=O)c3cccn3c3ccc(F)cc32)CC1
759 | O=C(CCSc1ccccc1)NCCn1cnc(-c2ccc(F)cc2)cc1=O
1040 | O=C(Cn1nc2c(SCc3ccc(Cl)cc3)nccn2c1=O)N1CCN(c2ccccc2)CC1
559 | Cc1cnc(C2CC2)n1C1CCN(Cc2ccc(F)cc2F)C1 (stereo not given)

RP-LC retention time [s] | Structure (SMILES)
742 | CCN(Cc1ccccc1)C(=O)c1ncn2c1C(=O)N(C1CC1)C(C)(C(=O)NCc1ccccc1)C2 (stereo not given)
588 | CCCCNC(=O)C1CCN(c2nc3ccc(-c4cccnc4)nc3s2)CC1
645 | O=C(NCc1ccc(F)cc1)C1CCN(c2nnc3c(Cl)cccn23)CC1
720 | Cc1ccc(C(=O)NCCc2cn(C)c3ncccc23)cc1F
810 | COc1ccc(CNC(=O)Cn2c(=O)cc(-c3nc(C)no3)c3ccccc32)cc1
842 | CC(CCc1ccccc1)NC(=O)CCC(=O)N1CCCn2nc(-c3cccn3C)cc21 (stereo not given)
842 | COCCn1cc2c3c(cccc31)CN(C(=O)NCc1ccc(F)cc1)CC2
688 | O=C(CC1CCCCC1)Nc1ccc(-c2cn3cccnc3n2)cc1
1020 | CCCCn1cc(S(=O)(=O)Nc2ccc(Cl)cc2F)c2cccnc21
1040 | COc1ccc(NC(=O)C2CCN(S(=O)(=O)c3ccc4[nH]c5c(c4c3)CCCCC5)CC2)cc1
674 | C=CCNC(=O)C1CCCN(c2ncnc3c2oc2ccccc23)C1 (stereo not given)
653 | CN(C)C(CNC(=O)c1cc(-c2ccccc2)on1)c1ccco1 (stereo not given)
793 | CCC1=C(c2ccc(C)cc2)S(=O)(=O)N=C1N1CCC(C(=O)NCc2ccco2)CC1
814 | Cc1oc(-c2ccc(NC(=O)Cc3cccc(F)c3)cc2)nc1Cn1cccn1
756 | O=C([C@@H]1C[C@H](Oc2ccccc2)CN1C(=O)c1ccsc1)N1CCCC1
656 | CCCNC(=O)C1CCCN(c2ccc(SCC(=O)NCc3ccc(C)cc3)nn2)C1 (stereo not given)
958 | CCc1nc(OCC(=O)Nc2ccc(Cl)c(Cl)c2)c2ccccc2n1

Continued, compound first:

Structure (SMILES) | RP-LC retention time [s]
COc1cc(CNc2nnc(-c3nnc(C4CC4)o3)c3ccccc23)cc(OC)c1 | 878
CC1(C)NC(=O)N(CCC(=O)N2CCCn3nc(-c4ccc(F)cc4)cc3C2)C1=O | 683
CC(C)c1ccc(S(=O)(=O)N2CCCC2c2nc(-c3ccc(F)cc3)no2)cc1 (stereo not given) | 1260
O=C1C(N2CCN(S(=O)(=O)c3ccc(Cl)s3)CC2)CCN1Cc1ccccn1 (stereo not given) | 613
Cc1ccccc1C(=O)N1CCc2c(c(-c3nc(C4CC4)no3)nn2C)C1 | 801
Cc1c(C(=O)NCC2CC2)cnn1-c1cc(-c2nc(C(C)C)no2)ccn1 | 1020
CCc1noc2nc(C)n(CC(=O)NCc3ccc(OC)cc3)c(=O)c12 | 755
N#Cc1cccc(-c2nc(-c3ccc4c(c3)nnn4CCN3CCCCC3)no2)c1 | 678
COc1ccc(NS(=O)(=O)c2cc3n(c2)CCN(C(C)C)C3=O)cc1Cl | 775
Cc1cccc(-c2nc3nc(C)cc(N(CCO)CCO)n3n2)c1 | 615
Cn1ccc(C(=O)N2CCNC(=O)C2(C)C)n1 | 527
COCCOCC(=O)N1CC(Oc2ccc(-c3nc(C)no3)cc2)C1 | 679
CC1CCc2cc(F)cc3c(=O)c(C(=O)O)cn1c23 (stereo not given) | 806
CCN1CCN(CCCNC(=O)C2CCCN(c3nnc(-n4c(C)ccc4C)s3)C2)CC1 (stereo not given) | 592
COc1cccc2c(C)nc(NC3=NCN(Cc4cccnc4)CN3)nc12 | 567
Cc1ccc2c(c1)C(=O)NC1(CCN(C(=O)c3ccc(F)c(F)c3)CC1)N2C | 795
CCc1nnc(-c2cccnc2N2CCN(C(=O)Nc3cc(Cl)cc(Cl)c3)CC2)o1 | 968
CC1CCCCN1CCNC(=O)c1csc(-c2ccc(N3CCCC3)nc2)n1 (stereo not given) | 557
COCCn1nc2n(c1=O)CCN(C(=O)c1cc(C3CC3)[nH]n1)CC2 | 596

Structure (SMILES) | RP-LC retention time [s]
CC(CCNC(=O)c1cc(S(=O)(=O)N2CCCCC2)ccc1Cl)N1CCCC1 (stereo not given) | 643
COc1cc(OC)cc(C(=O)Nc2cc(-c3cn4cccnc4n3)ccc2OC)c1 | 708
Cc1cc(C)cc(Oc2nccn3c(=O)n(CC(=O)Nc4cc(C)ccc4C)nc23)c1 | 974
CCOc1ccc2nc(C(=O)NC3CCCCCC3)cn2n1 | 982
COC(=O)C1=CN(c2ccc(F)cc2)c2cc(F)ccc2S1(=O)=O | 789
Cc1cc(=O)n(CC(=O)NCc2ccc(F)cc2F)c(N)n1 | 596
CCc1nc2c(NC(=O)c3cccc(Br)c3)cccn2n1 | 951
CC(=O)N1C[C@@H](C(=O)NCCc2c(C)noc2C)[C@H](c2nc(C)no2)C1 | 609
CNC(=O)c1cn(-c2ccc(S(=O)(=O)N3CCCC3)cn2)cn1 | 622
Nc1nc(-c2ccccc2Cl)nn1C(=O)C1CC1 | 827
CCOC(=O)N1CCN(Cc2nc(-c3ccc(N4CCCC(C)C4)nc3)no2)CC1 (stereo not given) | 855
CCn1cc(C(=O)NCc2ccc(Br)cc2)c2cccnc21 | 836
CC(C)(C)c1ccc(-c2noc(Cn3c(=O)n(Cc4ccccc4)c(=O)c4sccc43)n2)cc1 | 1330
CCn1c(CCNC(=O)c2ccc3ccccc3n2)nc2cccnc21 | 685
CCN1C(=O)COc2ccc(-c3noc(-c4ccc(C)c(C)c4)n3)cc21 | 1300
CCCC(=O)Nc1ccc2c(c1)CN(C(=O)C1CC1)C(C(=O)N(C)C)C2 (stereo not given) | 709
CCOC(=O)C1C(=O)C(=O)N(C(C)C)C1C(=O)OCC (stereo not given) | 782
CCN1C(=O)CCc2cc(NS(=O)(=O)c3cccc(C)c3)ccc21 | 788
Cc1sc(NC(=O)c2ccc(Br)cc2)nc1-c1ccc2c(c1)NC(=O)CO2 | 972

Structure (SMILES) | RP-LC retention time [s]
COc1cccc(CNC(=O)C2(c3ccc(NS(C)(=O)=O)cc3)CCCCC2)c1 | 867
O=C([C@@H]1C[C@H](F)CN1C(=O)c1cc(F)ccc1F)N1CCCCC1 | 700
COc1ccc(-c2nnc(-c3cccnc3NCc3cc(OC)cc(OC)c3)o2)cc1 | 1160
Brc1ccc(OCc2nn3c(-c4ccccn4)nnc3s2)cc1 | 872
CCN1CCCn2cc(S(=O)(=O)N3CCN(c4cccc(Cl)c4)CC3)cc2C1=O | 894
CN1CCc2nnc(C3CCN(C(=O)Nc4cc(F)cc(F)c4)C3)n2CC1 (stereo not given) | 593
Cc1noc(N)c1-c1ccc(Cl)cc1 | 807
O=C(c1c[nH]c2ncccc12)N1CCCC1 | 589
Cc1c(C(=O)NCC2CC2)cnn1-c1cc(-c2nc(C(C)(C)C)no2)ccn1 | 742
CCOc1ccc(-c2csc(NC(=O)CCCOc3ccc(Cl)cc3)n2)cc1 | 810
Cc1ccnc(C(=O)Nc2cccc(Cl)c2Cl)n1 | 866
CCN1C(=O)COc2ccc(-c3noc(-c4cc(OC)c(OC)c(OC)c4)n3)cc21 | 1060
COc1ccc(-c2noc(C3CCCN3C(=O)C3CCC3)n2)cc1 (stereo not given) | 899
CCOC(=O)CNC(=O)NCc1cccn1Cc1cccc(F)c1 | 810
CCN1CCN(CCCNC(=O)CCCN2C(=O)COc3ccc(C)cc32)CC1 | 585
CCc1ccc(OCc2nc(CCN(C)C(=O)Nc3ccc(OC)cc3)no2)cc1 | 949
O=C(Cc1ccc(F)cc1)N1CCN(c2nc(CN3CCOCC3)cs2)CC1 | 616
Cc1ccccc1CN1C(=O)N(c2ccc(F)cc2)c2ncccc2S1(=O)=O | 1100
